Read-outs that look alike come from different tables or passages of the source.
Biological target: T1, high affinity zinc uptake system (Zrt1p) (Saccharomyces cerevisiae, UniProt P32804)
T1 construct: endogenous in cells; host or cells: S. cerevisiae DY1457 (wild type, zinc-limited) and ZHY2 (zrt2); one kinetic value comes from ZHY1 carrying pOE1 (ZRT1 ORF under the GAL1 promoter)
Experiment: 65Zn uptake assay in yeast, high affinity zinc uptake system
Assay type: cell-based
Settings: for effect on zinc uptake by the high affinity system: 20 μM added metal, zinc-limited wild type
Protocol: Zinc uptake assays were performed as described previously for iron uptake (Eide et al. J. Biol. Chem. 267:20774-20781) except that ^65ZnCl2 (Amersham Corp., Arlington Heights, Ill.) and LZM-EDTA were substituted for ^59FeCl3 and LIM-EDTA. Cells were incubated at 30° C. with ^65Zn for five minutes, filtered, and washed with 10 ml ice-cold SSW. Cell-associated radioactivity was measured by liquid scintillation. Kinetic values were derived using KinetAsyst software (IntelliKinetics, Princeton, N.J.). Zinc accumulation was measured in cells grown in LZM medium supplemented with […] ^65Zn plus nonradioactive zinc to the indicated final concentration. Aliquots (0.5 ml) were filtered, washed with 10 ml ice-cold SSW, and counted by liquid scintillation. b-galactosidase activity was assayed as described by Guarente (Guarante, L. (1983) Methods Enzymol101:181-191).
Zinc uptake assays were performed as described previously for iron uptake (Eide et al. (1992) J. Biol. Chem. 267:20774-20781) except that ^65ZnCl2 (Amersham) and LZM-EDTA were substituted for ^59FeCI3 and LIM-EDTA, respectively. Cells were incubated for 5 minutes in LZM-EDTA plus the indicated concentration of ^65Zn, collected on glass fiber filters (Schleicher and Schuell), washed with 10 ml ice-cold SSW (1 mM EDTA, 20 mM trisodium citrate, 1 mM KH2PO4, 1 mM CaCl2, 5 mM MgSO4, 1 mM NaCl pH 4.2), and cell-associated radioactivity was measured by liquid scintillation counting. Cells were starved for glucose by incubating them in LZM-EDTA prepared without glucose for one hour at 30° C. prior to assay. Michaelis-Menten kinetic values were determined using […] software (Intellikinetics, Princeton, N.J.). Stock solutions of the chloride salts of Co, Cu, Mg, Mn, and Ni were prepared in distilled water at a concentration of 100 mM. The nonradioactive ZnCl2 stock was prepared at 100 mM in 0.02 N HCl and the FeCl3 stock was prepared at 50 mM in 0.1 N HCl. The statistical significance of the differences of values relative to controls was determined with one-way analysis of variance (ANOVA) followed by a Dunnett multiple comparison test. β-galactosidase activity was assayed in cells harvested at an OD600 of 0.5-2.0 as described by Guarente (Guarente, L. (1983) Methods Enzymol. 101:181-191) and activity is expressed as the change in absorbance at 420 nm×1000 divided by (min×ml of culture used×OD600 of the culture). Cell-associated zinc was measured in parallel cultures supplemented with tracer amounts of ^65Zn (10 μM) and nonradioactive zinc to the indicated final concentration. Aliquots (0.5 ml) were filtered, washed with 10 ml ice-cold SSW, and radioactivity measured by liquid scintillation.
To determine if ZRT1 plays a role in zinc uptake, the biochemical properties of this process in wild type cells were first characterized. […] Wild type (FIG. 10, DY1457, squares) and zrt1 mutant (FIG. 10, ZHY1, circles) cells were grown to exponential phase in zinc-limited (open symbols, FIG. 10) and zinc-replete (FIG. 10, closed symbols) media and assayed for zinc uptake rate over a range ZnSO4 concentrations. Zinc-limited media was LZM+10 μM zinc for the wild type and LZM+500 μM zinc for the mutant. Zinc-replete conditions were LZM+1000 μM for both strains. ZHY1(pOE1) cells (FIG. 10, triangles) were grown in zinc-replete SDgal medium.
Mutant zrt1 (ZHY1) cells were grown in LZM supplemented with 1 mM ZnCl2. Cells were incubated with 10 μM ^65Zn for the indicated times at either […]

T1 sequence (P32804 whole entry): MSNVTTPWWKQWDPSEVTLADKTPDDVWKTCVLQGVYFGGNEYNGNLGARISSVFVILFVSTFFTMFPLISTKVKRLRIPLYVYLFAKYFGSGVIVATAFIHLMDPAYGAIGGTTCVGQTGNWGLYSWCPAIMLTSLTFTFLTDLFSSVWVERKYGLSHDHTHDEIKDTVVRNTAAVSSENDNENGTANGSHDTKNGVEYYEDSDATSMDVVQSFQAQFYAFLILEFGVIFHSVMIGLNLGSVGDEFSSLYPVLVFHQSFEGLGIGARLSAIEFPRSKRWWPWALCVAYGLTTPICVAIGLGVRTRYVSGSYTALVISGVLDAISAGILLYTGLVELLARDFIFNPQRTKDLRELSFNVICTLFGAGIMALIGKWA

`[Cl-].[Cl-].[Co+2]` [Co] was tested, and the “effect on zinc uptake by the high affinity system” value (“effect on zinc uptake” for short) (2 μM 65Zn, five minutes) was “unaffected”.

`[Cl][Cu][Cl]` [Cu] was tested, and the “effect on zinc uptake” value (2 μM 65Zn, five minutes) was “inhibitory”.

With `[Fe+2]` [Fe(II)] the “effect on zinc uptake” value (2 μM 65Zn, five minutes) was “inhibitory”.

With `[Cl][Fe]([Cl])[Cl]` [Fe(III)] the “effect on zinc uptake” value (2 μM 65Zn, five minutes) was “unaffected”.

In the case of `[Cl][Mn][Cl]` [Mn], the “effect on zinc uptake” value (2 μM 65Zn, five minutes) is reported as “unaffected”.

In the case of `[Cl][Ni][Cl]` [Ni], the “effect on zinc uptake” value (2 μM 65Zn, five minutes) is reported as “unaffected”.

With `[Zn+2]` [zinc] the “control rate of zinc uptake” value (2 μM 65Zn, five minutes, wild type grown in LZM + 10 μM ZnCl2, no other metal) was 47 pmol/min/10^6 cells, the “effect on zinc uptake” value (2 μM 65Zn, five minutes) was “inhibitory” and the “Vmax of zinc uptake” value (ZHY1(pOE1), ZRT1 expressed from GAL1 promoter, zinc-replete cells, galactose) was 30 pmol/min/10^6 cells. The Km (ZHY1(pOE1), ZRT1 expressed from GAL1 promoter, zinc-replete cells, galactose, read-out: apparent Km of zinc uptake) was 0.6 ± 0.1 µM, the Km (calculated free zinc, read-out: apparent Km of the high affinity system, calculated free zinc concentration) was about 0.01 µM and the Km (total zinc, read-out: apparent Km of the high affinity system, total zinc) was 1 µM. For the same compound, the “Vmax of zinc uptake” value (wild type DY1457, zinc-limited cells (LZM+10 μM zinc)) was 80 pmol/min/10^6 cells, the Km (wild type DY1457, zinc-limited cells (LZM+10 μM zinc), read-out: apparent Km of zinc uptake) was 1 ± 0.1 µM and the Vmax (wild type, low growth medium [Zn] (LZM + 10 μM ZnCl2), mean ± SE) was 76 ± 2 pmol/min/10^6. For the same compound, the Km (wild type, low growth medium [Zn] (LZM + 10 μM ZnCl2), total zinc, mean ± SE, read-out: Km) was 0.52 ± 0.07 µM, the Vmax (zrt2, high growth medium [Zn] (LZM + 1.5 mM ZnCl2), mean ± SE) was 0.31 ± 0.01 pmol/min/10^6 and the Km (zrt2, high growth medium [Zn] (LZM + 1.5 mM ZnCl2), total zinc, mean ± SE, read-out: Km) was 0.4 ± 0.04 µM. For the same compound, the Vmax (zrt2, low growth medium [Zn], mean ± SE) was 60 ± 2 pmol/min/10^6 and the Km (zrt2, low growth medium [Zn], total zinc, mean ± SE, read-out: Km) was 0.85 ± 0.18 µM.
